Measured values as given in patent US5519034A, “Tetraisoquinoline compounds which have useful pharmaceutical utility” (The Boots Company PLC, priority 1991, dated 1996).
Like-named read-outs stand apart in the source and are kept apart here.

Experiments:
[1] = biological target: T1, D2 dopamine receptors (Rattus norvegicus, UniProt P61169); experiment: D2 dopamine receptor binding: inhibition of tritiated (S)-sulpiride binding, rat striatal samples; design: species or system rat (male Charles River CD rats); conditions: for Ki: rat striatum, tritiated (S)-sulpiride; for Ki for D2 / Ki for D1: ratio to two significant figures
T1 construct: Striatal samples from the brains of male Charles River CD rats; from tissue; host or cells: striatum of male Charles River CD rats (washed membrane pellet)
T1 sequence (P61169 whole entry): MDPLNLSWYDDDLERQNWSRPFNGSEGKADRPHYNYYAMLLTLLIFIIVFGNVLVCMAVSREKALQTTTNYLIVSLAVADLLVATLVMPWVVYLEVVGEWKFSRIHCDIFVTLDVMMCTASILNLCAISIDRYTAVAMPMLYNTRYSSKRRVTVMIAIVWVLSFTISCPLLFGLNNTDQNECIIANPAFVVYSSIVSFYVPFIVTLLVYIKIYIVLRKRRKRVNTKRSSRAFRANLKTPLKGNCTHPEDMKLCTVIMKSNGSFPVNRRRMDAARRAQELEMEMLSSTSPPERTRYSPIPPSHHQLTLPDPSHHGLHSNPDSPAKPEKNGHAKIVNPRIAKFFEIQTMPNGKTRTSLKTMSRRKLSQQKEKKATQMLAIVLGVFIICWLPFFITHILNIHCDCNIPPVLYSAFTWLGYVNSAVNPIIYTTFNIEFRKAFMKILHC
Method: (§1) Striatal samples from the brains of male Charles River CD rats weighing between 140-250 g were homogenised in ice-cold 50 mM Tris-HCl buffer (pH 7.4 when measured at 25° C. for D1 binding assays and pH 7.7 when measured at 25° C. for D2 binding assays) and centrifuged for 10 minutes (at 21,000 g when used for D1binding assay and 40,000 g when used for D2binding assays). The pellet was resuspended in the same buffer, again centrifuged and the final pellet stored at -80° C. Before each test the pellet was resuspended in 50 mM Tris-HCl buffer containing 120 mM NaCl, 5 mM KCl, 2 mM CaCl2 and 1 mM MgCl2 at pH 7.4 for the D1 binding assays and at pH 7.7 with the addition of 6 mM ascorbic acid for the D2 binding assays. Aliquots of this suspension were then added to tubes containing the ligand and either the compound under test or buffer. For the D1 binding assays the ligand was tritiated SCH 23390 and the mixture was incubated at 37° C. for 30 minutes before the incubation was terminated by rapid filtration. For the D2 binding assays the ligand was tritiated (S)-sulpiride and the mixture was incubated at 4° C. for 40 minutes before the incubation was terminated by rapid filtration. Non-specific binding was determined experimentally by the addition of saturating concentrations of chloropromazine or spiroperidol for D1 and D2 receptors respectively.
(§2) The filters were washed with ice-cold Tris-HCl buffer and dried. The filters were punched out on to vials containing scintillation fluid and were left for about 20 hours before being counted by scintillation spectrophotometry. Displacement curves were produced over a range of concentrations of the compound under test and the concentration which gave a 50% inhibition of specific binding (IC50) obtained from the curve. The inhibition coefficient Ki was then calculated using the formula [formula] in which [ligand] is the concentration of the tritiated ligand used and KD is the equilibrium dissociation constant for the ligand.
(§3) In some cases Ki values for D2 binding were estimated from single concentration data by the application of the Langmuir adsorption isotherm equation. These cases are indicated by an "E" in the last two columns of Table I. In other cases it was not possible to determine or estimate the Ki and the Ki value is given as greater than (>) that which would result from the application of the above formula to the highest concentration which displaced ≤50% of the ligand.

[2] = biological target: T2, D1 dopamine receptors (Rattus norvegicus, UniProt P18901); experiment: D1 dopamine receptor binding: inhibition of tritiated SCH 23390 binding, rat striatal samples; design: species or system rat (male Charles River CD rats); conditions: rat striatum, tritiated SCH 23390, pH 7.4, 37° C., 30 minutes
T2 construct: Striatal samples from the brains of male Charles River CD rats; from tissue; host or cells: striatum of male Charles River CD rats (washed membrane pellet)
T2 sequence (P18901 whole entry): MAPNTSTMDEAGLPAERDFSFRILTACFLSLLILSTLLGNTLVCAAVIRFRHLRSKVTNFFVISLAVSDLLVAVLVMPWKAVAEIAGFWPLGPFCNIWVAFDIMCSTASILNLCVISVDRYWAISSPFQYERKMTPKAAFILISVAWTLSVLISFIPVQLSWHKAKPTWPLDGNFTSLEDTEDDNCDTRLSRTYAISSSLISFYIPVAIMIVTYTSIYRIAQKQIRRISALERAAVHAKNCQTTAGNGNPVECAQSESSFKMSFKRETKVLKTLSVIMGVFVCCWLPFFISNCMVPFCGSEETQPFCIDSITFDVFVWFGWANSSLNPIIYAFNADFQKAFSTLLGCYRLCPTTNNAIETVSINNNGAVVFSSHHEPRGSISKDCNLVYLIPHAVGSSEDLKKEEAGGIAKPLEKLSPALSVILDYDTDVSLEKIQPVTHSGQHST
Method: as §1, §2, §3

[3] = pH 7.7, 4° C., 40 minutes, > = from highest concentration which displaced ≤50% of the ligand, read-out: Ki for D2 binding
[4] = estimated from single concentration data by Langmuir adsorption isotherm equation, read-out: Ki for D2 binding (marked E)

Row | SMILES | Ki [1, 3] | Ki for D2 / Ki for D1 [1] | Ki [2] | Ki [1, 4]
1 | CN1CCc2cc(O)c(O)cc2C1C1(c2ccccc2)CC(C)(C)C1 (centres unmarked) [Example 21, 6,7-dihydroxy-2-methyl-1-(3,3-dimethyl-1-phenylcyclobutyl)-1,2,3,4-tetrahydroisoquinoline] | > 5 µM | > 25 | 0.2 µM | –
2 | CN1CCc2cc(Cl)c(O)cc2C1C1(c2ccccc2Cl)CCC1 (centres unmarked) [Example 22, 6-chloro-1-[1-(2-chlorophenyl)cyclobutyl]-7-hydroxy-2-methyl-1,2,3,4-tetrahydroisoquinoline] | 1.8 µM | 780 | 0.0023 µM | –
3 | CN1CCc2cc(O)c(O)cc2C1C1(c2ccccc2C(F)(F)F)CCC1 (centres unmarked) [Example 23, 6,7-dihydroxy-2-methyl-1-[1-(2-trifluoromethylphenyl)cyclobutyl]-1,2,3,4-tetrahydroisoquinoline] | 15 µM | 830 | 0.018 µM | –
4 | CN1CCc2cc(F)c(O)cc2C1C1(c2ccccc2Cl)CCC1 (centres unmarked) [Example 24, 1-[1-(2-chlorophenyl)cyclobutyl]-6-fluoro-7-hydroxy-2-methyl-1,2,3,4-tetrahydroisoquinoline] | 1.7 µM | 890 | 0.0019 µM | –
5 | CN1CCc2cc(F)c(O)cc2C1C1(c2ccccc2)CCC1 (centres unmarked) [Example 25, 6-fluoro-7-hydroxy-2-methyl-1-(1-phenylcyclobutyl)-1,2,3,4-tetrahydroisoquinoline] | 5400 µM | 280000 | 0.019 µM | –
6 | CN1CCc2c(O)cccc2C1C1(c2ccc(Cl)cc2)CCC1 (centres unmarked) [Example 26, 1-[1-(4-chlorophenyl)cyclobutyl]-5-hydroxy-2-methyl-1,2,3,4-tetrahydroisoquinoline] | – | – | 0.56 µM | 7 µM
7 | CN1CCc2cc(O)c(O)cc2C1C1(c2ccccc2)CC1 (centres unmarked) [Example 27, 6,7-dihydroxy-2-methyl-1-(1-phenylcyclopropyl)-1,2,3,4-tetrahydroisoquinoline] | 5.7 µM | 30 | 0.19 µM | –
8 | CN1CCc2cc(Cl)c(O)cc2C1C1(c2ccccc2)CCC1 (centres unmarked) [Example 28, 6-chloro-7-hydroxy-2-methyl-1-(1-phenylcyclobutyl)-1,2,3,4-tetrahydroisoquinoline] | 3.6 µM | 330 | 0.011 µM | –
9 | CN1CCc2cc(O)c(O)cc2C1C1(c2ccccc2)CCCCC1 (centres unmarked) [Example 29, 6,7-dihydroxy-2-methyl-1-(1-phenylcyclohexyl)-1,2,3,4-tetrahydroisoquinoline] | – | – | 0.12 µM | 7 µM
10 | CN1CCc2cc(Cl)c(O)cc2C1C1(c2ccccc2)CC(C)(C)C1 (centres unmarked) [Example 30, 6-chloro-7-hydroxy-2-methyl-1-(3,3-dimethyl-1-phenylcyclobutyl)-1,2,3,4-tetrahydroisoquinoline] | > 5 µM | > 76 | 0.066 µM | –
11 | CN1CCc2cc(O)c(Cl)cc2C1C1(c2ccccc2)CCC1 (centres unmarked) [Example 31, 7-chloro-6-hydroxy-2-methyl-1-(1-phenylcyclobutyl)-1,2,3,4-tetrahydroisoquinoline] | – | – | 0.54 µM | 11 µM
12 | CN1CCc2c(cc(O)c(O)c2Cl)C1C1(c2ccccc2)CCC1 (centres unmarked) [Example 32, 5-chloro-6,7-dihydroxy-2-methyl-1-(1-phenylcyclobutyl)-1,2,3,4-tetrahydroisoquinoline] | > 5 µM | > 36 | 0.14 µM | –
13 | CN1CCc2cc(O)c(O)cc2C1C1(c2cccc(Cl)c2)CCC1 (centres unmarked) [Example 33, 1-[1-(3-chlorophenyl)cyclobutyl]-6,7-dihydroxy-2-methyl-1,2,3,4-tetrahydroisoquinoline] | 23 µM | 350 | 0.065 µM | –
14 | CN1CCc2cc(F)c(O)cc2C1C1(c2ccccc2Br)CCC1 (centres unmarked) [Example 34, 1-[1-(2-bromophenyl)cyclobutyl]-6-fluoro-7-hydroxy-2-methyl-1,2,3,4-tetrahydroisoquinoline] | 7.8 µM | 4300 | 0.0018 µM | –
15 | COc1cc2c(cc1O)C(C1(c3ccccc3Cl)CCC1)N(C)CC2 (centres unmarked) [Example 35, 1-[1-(2-chlorophenyl)cyclobutyl]-7-hydroxy-6-methoxy-2-methyl-1,2,3,4-tetrahydroisoquinoline] | 240 µM | 180000 | 0.0013 µM | –

More lines, now with the values ahead:

Row | Ki [1, 3] | Ki for D2 / Ki for D1 [1] | Ki [2] | Ki [1, 4] | SMILES
16 | 4.4 µM | 71 | 0.062 µM | – | COc1cc2c(cc1O)C(C1(c3ccccc3)CCCCC1)N(C)CC2 (centres unmarked) [Example 36, 7-hydroxy-6-methoxy-2-methyl-1-(1-phenylcyclohexyl)-1,2,3,4-tetrahydroisoquinoline]
17 | 5.3 µM | 8800 | 0.0006 µM | – | COc1cc2c(cc1O)C(C1(c3ccc(Cl)cc3Cl)CCC1)N(C)CC2 (centres unmarked) [Example 37, 1-[1-(2,4-dichlorophenyl)cyclobutyl]-7-hydroxy-6-methoxy-2-methyl-1,2,3,4-tetrahydroisoquinoline]
18 | 3.4 µM | 830 | 0.0041 µM | – | COc1cc2c(cc1O)C(C1(c3ccccc3OC)CCC1)N(C)CC2 (centres unmarked) [Example 38, 7-hydroxy-6-methoxy-1-[1-(2-methoxyphenyl)cyclobutyl]-2-methyl-1,2,3,4-tetrahydroisoquinoline]
19 | 1.9 µM | 83 | 0.023 µM | – | COc1cccc(C2(C3c4cc(O)c(OC)cc4CCN3C)CCC2)c1 (centres unmarked) [Example 39, 7-hydroxy-6-methoxy-1-[1-(3-methoxyphenyl)cyclobutyl]-2-methyl-1,2,3,4-tetrahydroisoquinoline]
20 | 18 µM | 45000 | 0.0004 µM | – | CN1CCc2cc(Cl)c(O)cc2C1C1(c2ccccc2Br)CCC1 (centres unmarked) [Example 40, 1-[1-(2-bromophenyl)cyclobutyl]-6-chloro-7-hydroxy-2-methyl-1,2,3,4-tetrahydroisoquinoline]
21 | 13 µM | 160 | 0.079 µM | – | CN1CCc2ccc(O)cc2C1C1(c2ccccc2)CCC1 (centres unmarked) [Example 41, 7-hydroxy-2-methyl-1-(1-phenylcyclobutyl)-1,2,3,4-tetrahydroisoquinoline]
22 | 2.5 µM | 15 | 0.17 µM | – | CN1CCc2cc(O)c(O)cc2C1C1(c2ccc3ccccc3c2)CCC1 (centres unmarked) [Example 42, 6,7-dihydroxy-2-methyl-1-[1-(2-naphthyl)cyclobutyl]-1,2,3,4-tetrahydroisoquinoline]
23 | 0.86 µM | 610 | 0.0014 µM | – | COc1cc2c(cc1O)C(C1(c3cccc4ccccc34)CC1)N(C)CC2 (centres unmarked) [Example 43, 7-hydroxy-6-methoxy-2-methyl-1-[1-(1-naphthyl)cyclopropyl]-1,2,3,4-tetrahydroisoquinoline]
24 | 4.8 µM | 37 | 0.13 µM | – | CN1CCc2c(Cl)ccc(O)c2C1C1(c2ccccc2)CCC1 (centres unmarked) [Example 44, 5-chloro-8-hydroxy-2-methyl-1-(1-phenylcyclobutyl)-1,2,3,4-tetrahydroisoquinoline]
25 | > 0.5 µM | > 21 | 0.024 µM | – | CN1CCc2cc(O)c(O)cc2C1C1(c2ccccc2)CCC1 (centres unmarked) [Example 45, 6,7-dihydroxy-2-methyl-1-(1-phenylcyclobutyl)-1,2,3,4-tetrahydroisoquinoline]
26 | 1.2 µM | 180 | 0.0066 µM | – | CN1CCc2cc(O)c(O)cc2C1C1(c2ccc(Cl)cc2Cl)CCC1 (centres unmarked) [Example 46]
27 | 19 µM | 2100 | 0.0091 µM | – | CN1CCc2ccc(O)cc2C1C1(c2ccccc2Cl)CCC1 (centres unmarked) [Example 47, 1-[1-(2-chlorophenyl)cyclobutyl]-7-hydroxy-2-methyl-1,2,3,4-tetrahydroisoquinoline]
28 | – | – | 0.094 µM | 3 µM | COc1cc2c(cc1O)C(C1(c3ccccc3)CCCC1)N(C)CC2 (centres unmarked) [Example 48]
29 | > 0.5 µM | > 60 | 0.0084 µM | – | COc1cc2c(cc1O)C(C1(c3ccc(Cl)cc3)CCC1)N(C)CC2 (centres unmarked) [Example 49, 1-[1-(4-chlorophenyl)cyclobutyl]-7-hydroxy-6-methoxy-2-methyl-1,2,3,4-tetrahydroisoquinoline]
